Test system: animals receiving CPR
Assay: Animal studies with administration of an anesthetic gas during CPR
Assay type: in vivo
Conditions: compared with other inhaled anesthetics
Source text: In one embodiment, the administered anesthetic includes sevoflurane. Other volatile anesthetics that may be administered include: halothane, enflurane, and desflurane isoflurane, xenon, helium and the like. […] These anesthetics may provide protective effects when administered before or during CPR and help stabilize the brain, heart, or body to help the heart, brain, and/or body to stay fresh. It is believed that some anesthetic agents provide these effects by attenuating the mitochondrial membrane permeability, or manipulating and protecting the mitochondrial membrane pores. It is believed that during ischemia, permeability pores in the mitochondria cell membrane open up causing the mitochondria to swell. In such a condition, the mitochondria are destroyed or damaged when blood flow is reestablished. The anesthetic may help protects against such damage, especially if the anesthetic is delivered or delivery is initiated early in reestablishing blood flow. Some volatile anesthetics like Xenon provide anesthesia by non-competitive inhibit N-methyl-D-aspartate receptors. Due to the fact that reperfusion injury occurs very early during the resuscitation efforts (within 2-3 minutes from the imitation of CPR) it is preferable that the anesthetic is delivered or delivery is initiated within the first 5 minutes of CPR efforts. […]

cardiodepressant effects: less of cardiodepressant effects
Structure (SMILES): FCOC(C(F)(F)F)C(F)(F)F [Sevoflurane, sevoflurane]
protection from reperfusion injury: significant protection from reperfusion injury

Reference: US20140363391A1, “SYSTEM AND METHOD FOR ADMINISTERING POLOXAMERS AND ANESTHETICS WHILE PERFORMING CPR AND MINIMIZING REPERFUSION INJURY” (priority 2013, published 2014)
